Results: patent publication US20260256670A1, “COMPOSITION CONTAINING PEPTIDES HAVING SKIN-LIGHTENING EFFECT” (REMEDI CO., LTD., priority 2022, published 2026)
Ends that are not written are not given here.

Test system: HaCaT cells
Test: Cytotoxicity evaluation (CCK8 assay)
Assay type: cell-based
Details: serum-free medium, 24 hours
Experimental: HaCaT cells and B16F10 cells were cultured in a cell culture medium supplemented with 10% of fetal bovine serum (FBS) and antibiotic solution (100 units/ml penicillin, 100 μg/ml of streptomycin) in DMEM medium. The cells were cultured under conditions maintained at 37° C., 95% humidity, and 5% CO2, and when the cells were 70-80% adhered to the culture dish, they were treated with trypsin-EDTA and subcultured. HaCaT cells were distributed and cultured from Professor Tae-Yoon Kim of the College of Medicine, The Catholic University of Korea, and B16F10 cells were distributed and cultured from the Korean Cell Line Bank.
To evaluate the toxicity of RMNE1 in HaCaT skin cells, 3×10^4 of HaCaT cells were attached to a 96-well plate 12 hours ago. Thereafter, the cells were washed using serum-free DMEM medium and then treated with RMNE1 peptide at different concentrations in the serum-free medium. After 24 hours, the cells were washed a total of three times with serum-free medium, and then cell activity was measured using the CCK8 assay.

DEQERRRRRGRTRVRSE [RMNE1, DEQERRRRRGRTRVRSE]
cytotoxicity: low cytotoxicity
